# Reference: US20250195357A1, “CLEAR SCALP COMPOSITION WITH DISCRETE PARTICLES” (The Procter & Gamble Company, priority 2022, published 2025)
# Key:
# [1] = Solubility of scalp actives; assay type: physicochemical
# [2] = cited from earlier work
Compound,Water solubility ([1]; at pH of 4.8 and above),Oil solubility [1],Solubility in water [2]
O=C(O)c1ccccc1O [salicylic acid],water soluble,,
CC1CCC(C(C)C)C(O)C1 (stereo not shown) [menthol],,oil soluble,
Cc1cc(CC(C)CC(C)(C)C)n(O)c(=O)c1.NCCO (stereo not shown) [piroctone olamine],,oil soluble,very limited solubility
